pKi: −log10 of the molar value.

The assay has as its target T1, NMDA receptor glycine site (Rattus norvegicus, UniProt P35439).
T1 construct: tissue Analytical Biological Services Inc; host or cells: rat brain membranes (cerebral cortex and hippocampus, male Sprague Dawley rats)
Nature of the assay: Test A: Inhibition of binding of [3H]-MDL105,519. To be noted: inhibition of 1.2 nM [3H]MDL105,519 binding to brain membranes; table does not say rat or human membranes. The source says:
Test A: Inhibition of Binding of [^3H]-MDL105,519:
Binding of compounds to the NMDA receptor glycine site may be assessed by measuring the ability of test compounds to inhibit the binding of tritiated MDL105,519 to brain membranes bearing the receptor.
Briefly, fresh brain tissue including cerebral cortex and hippocampus from male Sprague Dawley rats was homogenized in 0.32 M sucrose and centrifuged at low speed to separate cellular membranes from other cellular components. The membranes were then washed 3 times using deionized water, followed by treatment with 0.04% Triton X-100. Finally, membranes were washed six times in 50 mM Tris citrate buffer, pH 7.4, and frozen at −80° C. until use.
[^3H]MDL105,519 (72 Ci/mmol) was purchased from Amersham. Cold MDL105,519 was purchased from Sigma/RBI. […] On the day of the experiment, brain membranes were thawed at room temperature and suspended in 50 mM tris acetate buffer, pH 7.4 (“TAB”). Seventy-five micro grams per milliliter protein (by using the BioRad dye) were used for competition binding. The experiments were carried out using 96-well plates. […] Non specific binding was determined by using 100 μM of unlabeled MDL105,519. […] After incubation, unbound [^3H]MDL105,519 was removed by filtration onto GF/B Unifilter plates using a Packard harvester. Filters were washed four times with ice cold TAB (total of 1.2 mL buffer). The plates were dried overnight at room temperature and bound radioactivity was measured on a Packard TopCount after the addition of 45 μL per well of the MICROSCINT O.
Human Brain Membranes: Human brain membranes were obtained from Analytical Biological Services Inc., and assays were performed as described for rat membranes.
Data analysis: Data was analyzed using a Microsoft Excel spreadsheet and GraphPad Prizm software and potency of compounds is expressed as the Ki (nM).

In the case of `COc1ccc(Cn2nc(O)c3[nH]c4cc(Cl)ccc4c(=O)c3c2=O)cc1OC(=O)N1CCOCC1` [Ex. 16, Morpholine-4-carboxylic acid 5-(7-chloro-4-hydroxy-1,10-dioxo-5,10-dihydro-1H-pyridazino[4,5-b]quinolin-2-ylmethyl)-2-methoxy-phenyl ester], the pKi – broadly, the Ki on a negative log10 scale, so that one unit is a factor of ten – is 7.06.

In turn, `Cc1cc(Cn2nc(O)c3[nH]c4cc(Cl)ccc4c(=O)c3c2=O)ccc1OC(=O)N1CCOCC1` [Ex. 12, Morpholine-4-carboxylic acid 4-(7-chloro-4-hydroxy-1,10-dioxo-5,10-dihydro-1H-pyridazino[4,5-b]quinolin-2-ylmethyl)-2-methyl-phenyl ester] showed a pKi of 6.57. The figure for `Cc1cc(Cn2nc(O)c3[nH]c4cc(Cl)ccc4c(=O)c3c2=O)ccc1OC(=O)N(C)c1ccccc1` [Ex. 13, Methyl-phenyl-carbamic acid 4-(7-chloro-4-hydroxy-1,10-dioxo-5,10-dihydro-1H-pyridazino[4,5-b]quinolin-2-ylmethyl)-2-methyl-phenyl ester] is 7.23. The figure for `COc1ccc(Cn2nc(O)c3[nH]c4cc(Cl)ccc4c(=O)c3c2=O)cc1OC(=O)N(C)C` [Ex. 14, Dimethyl-carbamic acid 5-(7-chloro-4-hydroxy-1,10-dioxo-5,10-dihydro-1H-pyridazino[4,5-b]quinolin-2-ylmethyl)-2-methoxy-phenyl ester] is 6.78.

Source of the values: patent US20050227977A1, “Substituted 1,2,5,10-tetrahydropyridazino [4,5-b]quinoline-1,10-dione compounds and methods for the treatment of pain” (AstraZeneca AB, priority 1999, published 2005).
